Experiments:
Format in all cases: cell-based
[1] = tested on: Human cervical cancer cell line HeLa; test: Antitumor activity: number of living cells by CFSE-DA staining and WST-8 assay; conditions: 5, 10, or 20 μM, 4 days at 37° C., MEM containing 5% FBS, CFSE-DA and WST-8, FIGS. 2 and 3
Procedure: The antitumor effect on cancer cells was confirmed through measurement of the number of living cells using two methods.
Specifically, Compound 1 prepared as described above was added to cancer cells that were to be cultured under the following conditions such that the concentration of Compound 1 was 5, 10, or 20 μM, cancer cells were cultured for 4 days, and then an effect of Compound 1 on cancer cells was confirmed through fluorescence staining of living cells using CFSE-DA (FIG. 2) and WST-8 assays (FIG. 3).
(§1) Cancer cells: Human cervical cancer cell line HeLa
Nutrient sources of culture medium: MEM containing 5% FBS
Culture time after Compound 1 or DMSO was added: 4 days at 37° C.
CFSE: 5- or 6-(N-Succinimidyloxycarbonyl)fluorescein 3′,6′-diacetate

[2] = tested on: Human cervical cancer cell line HeLa; test: NO dependency of caspase 3 activation (NO scavenger / NO synthesis inhibitor), flow cytometry; conditions: FIG. 5
Procedure: It was confirmed that the activity of Caspase-3 above was NO-dependent, using two types of methods in which an NO scavenger and an NO synthesis inhibitor were used.
That is, first, the NO scavenger (0.2 mM) or NO synthesis inhibitor (4 mM) described above was added to cancer cells that were to be cultured under the following conditions, and the cancer cells were cultured for 1 hour, Compound 1 prepared as described above was added thereto such that the concentration of Compound 1 was 10 μM, the cancer cells were cultured for 15 hours, flow cytometry was then performed while a caspase 3 substrate and a membrane impermeable DNA stain were in contact therewith, and thus two-color dot plots were created.
as §1
(§2) Nutrient sources of culture medium: MEM (No Glucose) containing 0.1% Galactose and 5% FBS
Culture time after NO scavenger and NO synthesis inhibitor were added: 1 hour at 37° C.
NO scavenger: Carboxy-PTIO (cPTIO)
NO synthesis inhibitor: L-NAME (NO synthatase inhibitor)
Culture time after Compound 1 or DMSO was added: 15 hours
Caspase 3 substrate: NucView (trademark, Biotium) 488
Membrane impermeable DNA stain: DRAQ7 (trademark, BioStatus)

[3] = tested on: Human cervical cancer cell line HeLa; test: Induction of production of NO in cancer cells (DAF-FM DA, flow cytometry); conditions: 10 μM, 10 hours at 37° C., MEM (No Glucose) containing 0.1% Galactose and 5% FBS, FIG. 1
Procedure: The amount of nitric oxide (NO) produced in cancer cells was measured using a nitric oxide detection indicator. Specifically, Compound 1 prepared as described above was added to cancer cells that were to be cultured under the following conditions such that the concentration of Compound 1 was 10 μM, and the cancer cells were cultured for 10 hours, then flow cytometry was performed while the NO detection indicator was in contact therewith, and fluorescence intensity and cell number distribution were measured.
as §1, §2
Culture time after Compound 1 or DMSO was added: 10 hours at 37° C.
Nitric oxide detection indicator: Diaminofluorescein-FM diacetate (DAF-FM DA)

[4] = tested on: a plurality of cancer cell lines; test: Antitumor effect on a plurality of cancer cell lines
[5] = tested on: Human cervical cancer cell line HeLa; test: Programmed cell death under glucose starvation, WST-8 assay; conditions: 16 hours at 37° C., MEM with 0.1% Glucose or 0.1% Galactose (No Glucose) and 5% FBS, FIG. 6
Procedure: It was confirmed that programmed cell death of cancer cells by Compound 1 was facilitated under glucose starvation.
Specifically, the nutrient source of a culture medium used when Compound 1 was applied to cancer cells was set to either glucose (Glc) or galactose (Gal), cancer cells were cultured for 16 hours, and the survival rate of cancer cells was measured using WST-8 assays.
as §1
Culture medium before Compound 1 was added: MEM containing 10% FBS
Culture medium after Compound 1 was added: MEM containing 0.1% Glucose and 5% FBS, or containing 0.1% Galactose and 5% FBS (No Glucose)
Culture time after Compound 1 was added: 16 hours at 37° C.

SMILES: O=S(=O)(Nc1cc(C(F)(F)F)ccc1N1CC[C@@H]2CCCC[C@H]2C1)c1ccc(F)cc1 [Compound 1]
- antitumor effect (survival rate of cancer cells) [1]: antitumor effect of reducing the survival rate of cancer cells
- NO dependency of induced programmed cell death ([2]; 10 μM, cPTIO or L-NAME): NO-dependent
- ratio of cells with DRAQ7 negative and NucView 488 positive ([2]; Compound 1 at 10 μM alone, 15 hours, no glucose/0.1% Galactose, control 7.8%): 36.1%
- ratio of cells with DRAQ7 negative and NucView 488 positive under the presence of cPTIO ([2]; Compound 1 at 10 μM, 15 hours, after 1 hour with NO scavenger cPTIO 0.2 mM): 13.9%
- ratio of cells with DRAQ7 negative and NucView 488 positive under the presence of L-NAME ([2]; Compound 1 at 10 μM, 15 hours, after 1 hour with NO synthesis inhibitor L-NAME 4 mM): 22.7%
- production of NO in cells [3]: enhanced
- antitumor effect [4]: exhibited an antitumor effect on a plurality of cancer cell lines
- programmed cell death (survival rate) in glucose vs galactose medium [5]: facilitated in a glucose depleted state
